≈ marks a conversion by molar mass, not a printed value.
Tests used:
[1] = biological target: ABL (Homo sapiens, UniProt P00519); test: Off-chip mobility-shift kinase assay (Caliper LABCHIP), ABL; conditions: for ABL AVG % Activity at 1.0E−09: concentration 1.0E−09; for ABL AVG % Activity at 1.0E−10: concentration 1.0E−10; for ABL AVG % Activity at 3.0E−09: concentration 3.0E−09; for ABL AVG % Activity at 3.0E−10: concentration 3.0E−10
[2] = Caco-2 permeability (bi-directional; pH 7.4/pH 7.4); format: in vitro ADME; conditions: human; for Papp A→B at 120 min, 10 μM: Caco-2, pH 7.4, read-out: Permeability (cm^2/s × 10^6)
Method: Caco-2 cells are used as an in vitro model of the human intestinal epithelium and permit assessment of the intestinal permeability of potential drugs. Test compound is added to either the apical or basolateral side of a confluent monolayer of Caco-2 cells and permeability is measured by monitoring the appearance of the test compound on the opposite side of the membrane using LC-MS/MS. Apparent permeability (Papp) coefficients, efflux ratio for the test compound and recovery values were determined.
To measure the permeability of test compound in the apical to basolateral (A-B) and basolateral to apical (B-A) direction across Caco-2 cells.
Caco-2 cells obtained from the ATCC are used between passage numbers 40-60. Cells are seeded on to Millipore Multiscreen Caco-2 plates at 1×10^5 cells/cm^2. They are cultured for 20 days in DMEM and media is changed every two or three days. On day 20 the permeability study is performed.
On day 20, the monolayers are prepared by rinsing both basolateral and apical surfaces twice with HBSS at 37° C. Cells are then incubated with HBSS in both apical and basolateral compartments for 40 min to stabilize physiological parameters. HBSS is then removed from the apical compartment and replaced with test compound dosing solutions. […] The fluorescent integrity marker lucifer yellow is also included in the dosing solution. Analytical standards are made from dosing solutions. The apical compartment inserts are then placed into ‘companion’ plates containing fresh HBSS. For basolateral to apical (B-A) permeability determination the experiment is initiated by replacing buffer in the inserts then placing them in companion plates containing dosing solutions. At 120 minutes the companion plate is removed and apical and basolateral samples diluted for analysis by LC-MS/MS. Test compound permeability was assessed in duplicate. On each plate, compounds of known permeability characteristics were run as controls.
Test and control compounds were quantified by LC-MS/MS cassette analysis using a 5-point calibration with appropriate dilution of the samples. Cyprotex generic analytical conditions were used. The starting concentration (C0) and experimental recovery were calculated from both apical and basolateral compartment concentrations.
The integrity of the monolayers throughout the experiment was checked by monitoring lucifer yellow permeation using fluorimetric analysis. Lucifer yellow permeation is low if monolayers have not been damaged. […] If lucifer yellow Papp values are above QC limits in both replicate wells for a test compound, the compound was re-tested.
Data Analysis: The permeability coefficient for each compound (Papp) is calculated from the following equation: […]
wherein dQ/dt is the rate of permeation of the drug across the cells, C0 is the donor compartment concentration at time zero and A is the area of the cell monolayer. C0 is obtained from analysis of donor and receiver compartments at the end of the incubation period. It is assumed that all of the test compound measured after 120 minutes incubation was initially present in the donor compartment at 0 minutes. An efflux ratio (ER) is derived as follows:
Talinolol (a known P-gp substrate) is also included as a control compound to assess whether functional P-gp is present in the Caco-2 cell monolayer.

[3] = biological target: cKIT (Homo sapiens, UniProt P10721); test: Off-chip mobility-shift kinase assay (Caliper LABCHIP), C-kit
cKIT, sequence (P10721 26-976): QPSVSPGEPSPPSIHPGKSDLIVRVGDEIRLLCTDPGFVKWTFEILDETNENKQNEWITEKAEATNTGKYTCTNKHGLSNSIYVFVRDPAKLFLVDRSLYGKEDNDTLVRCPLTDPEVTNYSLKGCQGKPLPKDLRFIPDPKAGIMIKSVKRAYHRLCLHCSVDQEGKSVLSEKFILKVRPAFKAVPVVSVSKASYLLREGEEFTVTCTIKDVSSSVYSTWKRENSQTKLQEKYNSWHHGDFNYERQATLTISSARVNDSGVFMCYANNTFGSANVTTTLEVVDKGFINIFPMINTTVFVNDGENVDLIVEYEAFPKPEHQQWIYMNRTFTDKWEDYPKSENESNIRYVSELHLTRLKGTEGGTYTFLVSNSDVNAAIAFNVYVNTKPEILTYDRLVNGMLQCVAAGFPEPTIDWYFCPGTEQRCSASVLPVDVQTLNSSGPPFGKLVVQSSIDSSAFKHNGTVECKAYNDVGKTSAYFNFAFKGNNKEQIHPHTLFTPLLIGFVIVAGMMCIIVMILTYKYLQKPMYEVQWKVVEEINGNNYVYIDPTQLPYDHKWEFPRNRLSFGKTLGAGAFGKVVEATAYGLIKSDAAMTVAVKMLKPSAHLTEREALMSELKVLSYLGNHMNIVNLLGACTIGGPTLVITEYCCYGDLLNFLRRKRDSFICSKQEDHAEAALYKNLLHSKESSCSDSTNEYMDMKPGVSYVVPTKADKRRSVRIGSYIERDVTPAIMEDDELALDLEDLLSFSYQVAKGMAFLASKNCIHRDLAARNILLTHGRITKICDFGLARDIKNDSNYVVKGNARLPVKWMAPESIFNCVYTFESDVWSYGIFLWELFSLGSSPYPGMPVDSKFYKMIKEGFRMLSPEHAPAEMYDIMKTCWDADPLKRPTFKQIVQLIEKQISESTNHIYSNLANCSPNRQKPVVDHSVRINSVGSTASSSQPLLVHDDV

[4] = Thermodynamic solubility; format: physicochemical; conditions: aqueous buffer, thermodynamic from solid; phosphate buffered saline, pH 7.4; ambient temperature overnight
Method: Test compound (2.5 mg of solid; n=1) is weighed in a clear glass vial and buffer (0.5 mL) is added (phosphate buffered saline, pH 7.4). The solution is agitated at ambient temperature overnight using a vial roller system. […] Duplicate aliquots (50 μL) are sampled from the filtrate and diluted with one volume of 0.1 N hydrochloric acid and methanol (1:1 v/v) before analysis by HPLC-UV. […] The concentration of test compound in the filtrate is quantified relative to the concentration standard.
Analysis is performed using a gradient HPLC-UV system with a total cycle time of six minutes.

[5] = biological target: PDGFRβ (Homo sapiens, UniProt P09619); test: Off-chip mobility-shift kinase assay (Caliper LABCHIP), PDGFR
PDGFRβ, sequence (P09619 33-1106): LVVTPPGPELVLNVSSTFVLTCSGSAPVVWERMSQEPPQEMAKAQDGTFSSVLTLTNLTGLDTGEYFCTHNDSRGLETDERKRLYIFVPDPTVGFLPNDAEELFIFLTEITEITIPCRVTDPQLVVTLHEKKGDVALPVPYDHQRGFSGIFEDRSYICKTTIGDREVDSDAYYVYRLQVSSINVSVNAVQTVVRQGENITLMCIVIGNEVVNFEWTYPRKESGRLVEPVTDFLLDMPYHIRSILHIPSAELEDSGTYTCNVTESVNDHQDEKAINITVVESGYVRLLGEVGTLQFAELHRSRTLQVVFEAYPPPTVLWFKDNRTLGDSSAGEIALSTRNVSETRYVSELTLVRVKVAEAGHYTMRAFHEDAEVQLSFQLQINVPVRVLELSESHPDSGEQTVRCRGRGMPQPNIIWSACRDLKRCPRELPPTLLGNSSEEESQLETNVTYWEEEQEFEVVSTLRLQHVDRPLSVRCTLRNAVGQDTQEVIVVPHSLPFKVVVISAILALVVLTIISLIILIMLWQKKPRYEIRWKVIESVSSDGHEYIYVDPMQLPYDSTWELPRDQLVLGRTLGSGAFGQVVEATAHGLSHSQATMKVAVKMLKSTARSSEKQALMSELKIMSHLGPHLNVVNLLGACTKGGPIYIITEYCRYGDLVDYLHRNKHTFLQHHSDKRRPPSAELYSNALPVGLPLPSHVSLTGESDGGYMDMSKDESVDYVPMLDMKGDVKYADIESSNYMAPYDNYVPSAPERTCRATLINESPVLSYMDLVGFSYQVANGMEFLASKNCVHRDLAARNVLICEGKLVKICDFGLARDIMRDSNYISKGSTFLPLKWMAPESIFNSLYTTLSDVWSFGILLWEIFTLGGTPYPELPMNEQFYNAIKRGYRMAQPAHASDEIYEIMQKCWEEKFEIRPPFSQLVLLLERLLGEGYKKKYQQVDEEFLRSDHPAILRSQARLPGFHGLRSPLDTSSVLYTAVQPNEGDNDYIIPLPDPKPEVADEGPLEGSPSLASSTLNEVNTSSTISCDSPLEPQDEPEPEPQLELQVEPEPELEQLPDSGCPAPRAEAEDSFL

[6] = imatinib-corresponding compounds
[7] = dasatinib-corresponding compounds

ABL, sequence (P00519 whole entry): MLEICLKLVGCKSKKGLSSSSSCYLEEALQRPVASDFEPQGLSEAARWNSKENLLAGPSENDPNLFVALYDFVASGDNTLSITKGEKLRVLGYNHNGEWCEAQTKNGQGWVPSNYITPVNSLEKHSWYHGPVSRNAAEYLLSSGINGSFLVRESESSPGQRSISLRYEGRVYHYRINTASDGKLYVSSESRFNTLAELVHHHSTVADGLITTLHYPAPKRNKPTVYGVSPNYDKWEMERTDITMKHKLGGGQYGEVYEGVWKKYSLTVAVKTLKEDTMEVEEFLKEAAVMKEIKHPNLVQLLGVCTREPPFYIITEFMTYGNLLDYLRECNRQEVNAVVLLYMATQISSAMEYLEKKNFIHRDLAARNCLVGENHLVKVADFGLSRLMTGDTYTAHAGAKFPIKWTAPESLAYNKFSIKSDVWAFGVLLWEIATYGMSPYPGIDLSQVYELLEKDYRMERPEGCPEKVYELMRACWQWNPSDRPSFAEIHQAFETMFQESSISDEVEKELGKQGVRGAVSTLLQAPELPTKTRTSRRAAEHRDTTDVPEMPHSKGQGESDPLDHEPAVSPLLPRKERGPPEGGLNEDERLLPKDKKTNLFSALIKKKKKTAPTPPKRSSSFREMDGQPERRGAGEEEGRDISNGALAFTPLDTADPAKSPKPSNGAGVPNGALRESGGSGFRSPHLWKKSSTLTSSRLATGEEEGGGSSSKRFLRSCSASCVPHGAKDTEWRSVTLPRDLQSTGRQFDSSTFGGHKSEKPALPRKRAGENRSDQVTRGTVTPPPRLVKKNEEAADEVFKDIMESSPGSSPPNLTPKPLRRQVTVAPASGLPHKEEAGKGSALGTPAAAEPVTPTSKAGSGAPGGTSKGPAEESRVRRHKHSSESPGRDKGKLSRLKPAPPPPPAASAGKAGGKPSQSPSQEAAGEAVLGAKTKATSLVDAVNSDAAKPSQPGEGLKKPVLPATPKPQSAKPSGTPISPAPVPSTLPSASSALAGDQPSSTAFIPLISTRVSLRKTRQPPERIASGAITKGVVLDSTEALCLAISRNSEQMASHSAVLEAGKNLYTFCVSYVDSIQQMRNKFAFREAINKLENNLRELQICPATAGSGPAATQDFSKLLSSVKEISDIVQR

**Q.** For COCCOCCOCCOCCOCCNCc1ccc(C(=O)Nc2ccc(C)c(Nc3nccc(-c4cccnc4)n3)c2)cc1 [mPEG5-N-Imatinib], which IC50 [1] is on record?
**A.** Its IC50 is no less than 3000 nM.

**Q.** What about the “ABL AVG % Activity at 1.0E−06” value ([1]; concentration 1.0E−06, imatinib-corresponding compounds) of the same compound?
**A.** The value was 74%.

**Q.** And the “ABL AVG % Activity at 1.0E−07” value ([1]; concentration 1.0E−07, imatinib-corresponding compounds)?
**A.** Its value is 86%.

**Q.** And the “ABL AVG % Activity at 1.0E−08” value ([1]; concentration 1.0E−08, imatinib-corresponding compounds)?
**A.** The value was 95%.

**Q.** And the “ABL AVG % Activity at 1.0E−09” value [1, 6]?
**A.** The value was 97%.

**Q.** What about the “ABL AVG % Activity at 1.0E−10” value [1, 6] of the same compound?
**A.** Its value is 96%.

**Q.** What about the “ABL AVG % Activity at 3.0E−06” value ([1]; concentration 3.0E−06, imatinib-corresponding compounds) of the same compound?
**A.** The value was 66%.

**Q.** And the “ABL AVG % Activity at 3.0E−07” value ([1]; concentration 3.0E−07, imatinib-corresponding compounds)?
**A.** The value was 80%.

**Q.** What about the “ABL AVG % Activity at 3.0E−08” value ([1]; concentration 3.0E−08, imatinib-corresponding compounds) of the same compound?
**A.** The value was 92%.

**Q.** What about the “ABL AVG % Activity at 3.0E−09” value [1, 6] of the same compound?
**A.** Its value is 96%.

**Q.** What about the “ABL AVG % Activity at 3.0E−10” value [1, 6] of the same compound?
**A.** Its value is 96%.

**Q.** What about the Papp A→B at 120 min, 10 μM [2] of the same compound?
**A.** The Papp A→B at 120 min, 10 μM was 0.05 ± 0.02 ×10⁻⁶ cm/s.

**Q.** And the efflux ratio at 120 min, 10 μM ([2]; Caco-2, ratio of B-A and A-B permeabilities, 10 μM, 120 minutes)?
**A.** The efflux ratio at 120 min, 10 μM was 560.

**Q.** What about the IC50 [3] of the same compound?
**A.** The IC50 was 440 nM.

**Q.** And the “C-kit AVG % Activity at 1.0E−05” value ([3]; concentration 1.0E−05)?
**A.** Its value is 1%.

**Q.** What about the “C-kit AVG % Activity at 1.0E−06” value ([3]; concentration 1.0E−06) of the same compound?
**A.** Its value is 28%.

**Q.** What about the “C-kit AVG % Activity at 1.0E−07” value ([3]; concentration 1.0E−07) of the same compound?
**A.** Its value is 82%.

**Q.** And the “C-kit AVG % Activity at 1.0E−08” value ([3]; concentration 1.0E−08)?
**A.** Its value is 92%.

**Q.** And the “C-kit AVG % Activity at 3.0E−05” value ([3]; concentration 3.0E−05)?
**A.** Its value is 0%.

**Q.** And the “C-kit AVG % Activity at 3.0E−06” value ([3]; concentration 3.0E−06)?
**A.** The value was 9%.

**Q.** And the “C-kit AVG % Activity at 3.0E−07” value ([3]; concentration 3.0E−07)?
**A.** The value was 59%.

**Q.** And the “C-kit AVG % Activity at 3.0E−08” value ([3]; concentration 3.0E−08)?
**A.** The value was 91%.

**Q.** And the “C-kit AVG % Activity at 3.0E−09” value ([3]; concentration 3.0E−09)?
**A.** The value was 96%.

**Q.** And the solubility [4]?
**A.** The solubility was 3400 µg/mL (≈ 5.27 mM).

**Q.** What about the IC50 [5] of the same compound?
**A.** The IC50 was 220 nM.

**Q.** And the “PDGFR AVG % Activity at 1.0E−06” value ([5]; concentration 1.0E−06)?
**A.** Its value is 9%.

**Q.** What about the “PDGFR AVG % Activity at 1.0E−07” value ([5]; concentration 1.0E−07) of the same compound?
**A.** Its value is 62%.

**Q.** And the “PDGFR AVG % Activity at 1.0E−08” value ([5]; concentration 1.0E−08)?
**A.** The value was 94%.

**Q.** What about the “PDGFR AVG % Activity at 1.0E−09” value ([5]; concentration 1.0E−09) of the same compound?
**A.** Its value is 90%.

**Q.** And the “PDGFR AVG % Activity at 1.0E−10” value ([5]; concentration 1.0E−10)?
**A.** Its value is 92%.

**Q.** What about the “PDGFR AVG % Activity at 3.0E−06” value ([5]; concentration 3.0E−06) of the same compound?
**A.** The value was 0%.

**Q.** What about the “PDGFR AVG % Activity at 3.0E−07” value ([5]; concentration 3.0E−07) of the same compound?
**A.** Its value is 37%.

**Q.** And the “PDGFR AVG % Activity at 3.0E−08” value ([5]; concentration 3.0E−08)?
**A.** Its value is 85%.

**Q.** What about the “PDGFR AVG % Activity at 3.0E−09” value ([5]; concentration 3.0E−09) of the same compound?
**A.** The value was 100%.

**Q.** What about the “PDGFR AVG % Activity at 3.0E−10” value ([5]; concentration 3.0E−10) of the same compound?
**A.** Its value is 92%.

**Q.** With COCCOCCOCCOCC(=O)NC(CC(C)C)C(=O)OCCN1CCN(c2cc(Nc3ncc(C(=O)Nc4c(C)cccc4Cl)s3)nc(C)n2)CC1 (stereo not drawn) [mPEG3-Leu-Dasatinib] as the compound, how does the IC50 [1] read?
**A.** The IC50 was 0.43 nM.

**Q.** And the “ABL AVG % Activity at 1.0E−09” value [1, 7]?
**A.** Its value is 14%.

**Q.** What about the “ABL AVG % Activity at 1.0E−10” value [1, 7] of the same compound?
**A.** Its value is 85%.

**Q.** And the “ABL AVG % Activity at 1.0E−11” value ([1]; concentration 1.0E−11, dasatinib-corresponding compounds)?
**A.** The value was 99%.

**Q.** What about the “ABL AVG % Activity at 3.0E−09” value [1, 7] of the same compound?
**A.** Its value is 1%.

**Q.** And the “ABL AVG % Activity at 3.0E−10” value [1, 7]?
**A.** The value was 62%.

**Q.** And the “ABL AVG % Activity at 3.0E−11” value ([1]; concentration 3.0E−11, dasatinib-corresponding compounds)?
**A.** The value was 97%.

**Q.** For COCCOCCOCCN1CCN(Cc2ccc(C(=O)Nc3ccc(C)c(Nc4nccc(-c5cccnc5)n4)c3)cc2)CC1 [mPEG3-N′-Imatinib], which Papp A→B at 120 min, 10 μM [2] is on record?
**A.** Its Papp A→B at 120 min, 10 μM is 4 ± 0.8 ×10⁻⁶ cm/s.

**Q.** And the solubility [4]?
**A.** Its solubility is 500 µg/mL (≈ 0.799 mM).

**Q.** Which results are given for COCCOCCOCCNCc1ccc(C(=O)Nc2ccc(C)c(Nc3nccc(-c4cccnc4)n3)c2)cc1 [mPEG3-N-Imatinib]?
**A.** Papp A→B at 120 min, 10 μM [2]: 0.6 ± 0.07 ×10⁻⁶ cm/s; solubility [4]: 3300 µg/mL (≈ 5.93 mM)

**Q.** Which Papp A→B at 120 min, 10 μM [2] does the source give for COCCOCCOCCOCCOCCN1CCN(Cc2ccc(C(=O)Nc3ccc(C)c(Nc4nccc(-c5cccnc5)n4)c3)cc2)CC1 [mPEG5-N′-Imatinib] here?
**A.** Its Papp A→B at 120 min, 10 μM is 1 ± 0.2 ×10⁻⁶ cm/s.

**Q.** And the solubility [4]?
**A.** Its solubility is 3300 µg/mL (≈ 4.62 mM).

— US20120094998A1, “Oligomer-Protein Tyrosine Kinase Inhibitor Conjugates” (Nektar Therapeutics, priority 2009, published 2012)
